Measured values taken from ChEMBL document CHEMBL3124891, “Tetrahydroquinoline derivatives as potent and selective factor XIa inhibitors” (J Med Chem, 2014).

Experiments:
[1] = Binding affinity to New Zealand White rabbit factor 11a assessed as release of p-nitroaniline after 10 to 120 mins by spectrophotometric analysis; parameters: species or system Oryctolagus cuniculus
Oryctolagus cuniculus [2] = assay: Antithrombotic activity in rabbit arteriovenous-shunt thrombosis model assessed as inhibition of clot formation compound administered as single bolus dose followed by five continuous infusion dose; assay type: functional
Trypsin = Trypsin (Homo sapiens, UniProt P07477+P07478+P35030); assay: Binding affinity to human trypsin assessed as release of p-nitroaniline after 10 to 120 mins by spectrophotometric analysis; assay type: protein assay
[3] = Binding affinity to New Zealand White rabbit factor 7a assessed as release of p-nitroaniline after 10 to 120 mins by spectrophotometric analysis; parameters: species or system Oryctolagus cuniculus
[4] = biological target: Tissue-type plasminogen activator (Homo sapiens, UniProt P00750); assay: Binding affinity to human tPA assessed as release of p-nitroaniline after 10 to 120 mins by spectrophotometric analysis
Chain of Tissue-type plasminogen activator (P00750 whole entry): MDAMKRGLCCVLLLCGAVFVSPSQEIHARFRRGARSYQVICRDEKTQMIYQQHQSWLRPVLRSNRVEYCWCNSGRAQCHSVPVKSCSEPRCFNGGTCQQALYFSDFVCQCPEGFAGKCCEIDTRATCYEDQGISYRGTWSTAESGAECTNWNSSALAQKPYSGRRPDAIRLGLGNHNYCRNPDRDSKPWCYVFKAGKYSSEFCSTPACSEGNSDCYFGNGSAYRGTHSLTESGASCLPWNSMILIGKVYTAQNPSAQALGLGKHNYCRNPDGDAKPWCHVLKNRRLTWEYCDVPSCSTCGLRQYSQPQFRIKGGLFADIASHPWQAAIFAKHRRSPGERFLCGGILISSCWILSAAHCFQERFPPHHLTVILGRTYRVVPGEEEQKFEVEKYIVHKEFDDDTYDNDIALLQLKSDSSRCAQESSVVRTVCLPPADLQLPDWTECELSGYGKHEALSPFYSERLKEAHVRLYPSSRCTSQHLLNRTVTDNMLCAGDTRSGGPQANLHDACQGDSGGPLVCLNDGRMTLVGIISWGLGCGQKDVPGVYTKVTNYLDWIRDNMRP

[5] = Binding affinity to New Zealand White rabbit plasma kallikrein assessed as release of p-nitroaniline after 10 to 120 mins by spectrophotometric analysis; assay type: cell-free, Oryctolagus cuniculus
[6] = Binding affinity to New Zealand White rabbit thrombin assessed as release of p-nitroaniline after 10 to 120 mins by spectrophotometric analysis; parameters: species or system Oryctolagus cuniculus
Coagulation factor IX = Coagulation factor IX (Homo sapiens, UniProt P00740); assay: Binding affinity to human factor 9a assessed as release of p-nitroaniline after 10 to 120 mins by spectrophotometric analysis
Chain of Coagulation factor IX (P00740 47-191 limits assumed): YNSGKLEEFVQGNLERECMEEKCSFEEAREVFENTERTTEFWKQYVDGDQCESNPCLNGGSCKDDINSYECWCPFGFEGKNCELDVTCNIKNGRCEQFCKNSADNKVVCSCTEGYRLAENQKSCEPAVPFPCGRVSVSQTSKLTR
Chain of Coagulation factor IX (P00740 227-461 limits assumed): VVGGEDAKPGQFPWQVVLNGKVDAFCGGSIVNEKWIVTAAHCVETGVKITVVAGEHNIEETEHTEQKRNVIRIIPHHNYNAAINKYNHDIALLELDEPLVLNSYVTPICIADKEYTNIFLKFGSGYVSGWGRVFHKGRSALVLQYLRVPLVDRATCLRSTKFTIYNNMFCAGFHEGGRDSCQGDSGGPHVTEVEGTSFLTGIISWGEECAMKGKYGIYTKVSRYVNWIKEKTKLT

Plasma [7] = assay: Anticoagulant activity in human plasma assessed as concentration required to inhibit double prothrombin time; assay type: functional
Coagulation factor X [8] = biological target: T1, Coagulation factor X (Oryctolagus cuniculus, UniProt O19045); assay: Binding affinity to New Zealand White rabbit factor 10a assessed as release of p-nitroaniline after 10 to 120 mins by spectrophotometric analysis
T1 sequence (O19045 whole entry): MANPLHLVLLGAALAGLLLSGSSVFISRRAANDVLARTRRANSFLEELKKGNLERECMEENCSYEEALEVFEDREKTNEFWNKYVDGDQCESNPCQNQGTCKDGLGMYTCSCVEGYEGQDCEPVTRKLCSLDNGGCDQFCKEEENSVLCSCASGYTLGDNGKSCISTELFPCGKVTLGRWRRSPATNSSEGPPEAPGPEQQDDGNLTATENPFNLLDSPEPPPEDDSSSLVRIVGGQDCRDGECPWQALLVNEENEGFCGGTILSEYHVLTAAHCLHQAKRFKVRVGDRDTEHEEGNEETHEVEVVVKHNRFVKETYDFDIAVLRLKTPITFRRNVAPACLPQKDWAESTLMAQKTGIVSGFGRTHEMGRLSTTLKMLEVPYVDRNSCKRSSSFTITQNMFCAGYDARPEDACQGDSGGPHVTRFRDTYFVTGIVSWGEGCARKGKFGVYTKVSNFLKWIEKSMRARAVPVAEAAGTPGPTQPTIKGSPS

Plasminogen = Plasminogen (Homo sapiens, UniProt P00747); assay: Binding affinity to human plasmin assessed as release of p-nitroaniline after 10 to 120 mins by spectrophotometric analysis
Chain of Plasminogen (P00747 97-580 limits assumed): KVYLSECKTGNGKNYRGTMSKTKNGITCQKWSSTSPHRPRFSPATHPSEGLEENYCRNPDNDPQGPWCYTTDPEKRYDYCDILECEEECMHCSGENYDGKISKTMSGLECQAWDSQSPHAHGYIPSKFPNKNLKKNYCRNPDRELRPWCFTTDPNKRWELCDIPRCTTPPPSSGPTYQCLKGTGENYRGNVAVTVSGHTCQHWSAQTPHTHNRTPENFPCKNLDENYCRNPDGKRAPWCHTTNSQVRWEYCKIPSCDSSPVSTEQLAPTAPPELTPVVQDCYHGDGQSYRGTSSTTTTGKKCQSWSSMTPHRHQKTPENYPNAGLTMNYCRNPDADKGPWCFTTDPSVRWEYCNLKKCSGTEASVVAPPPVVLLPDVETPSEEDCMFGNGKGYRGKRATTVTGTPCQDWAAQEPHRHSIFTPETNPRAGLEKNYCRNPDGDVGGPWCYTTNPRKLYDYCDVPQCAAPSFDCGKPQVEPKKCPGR
Chain of Plasminogen (P00747 581-810 limits assumed): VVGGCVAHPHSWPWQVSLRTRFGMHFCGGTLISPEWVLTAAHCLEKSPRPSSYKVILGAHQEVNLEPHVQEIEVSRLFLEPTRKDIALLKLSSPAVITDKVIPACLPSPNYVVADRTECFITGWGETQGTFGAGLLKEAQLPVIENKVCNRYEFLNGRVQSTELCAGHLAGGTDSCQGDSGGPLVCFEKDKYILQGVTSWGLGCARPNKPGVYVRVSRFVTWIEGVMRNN

Oryctolagus cuniculus [9] = assay: Toxicity in rabbit arteriovenous-shunt thrombosis model assessed as increase in bleeding time compound administered as single bolus dose followed by five continuous infusion dose; assay type: organism-based; conditions: in vivo, iv
Coagulation factor VII = biological target: T2, Coagulation factor VII (Homo sapiens, UniProt P08709); assay: Binding affinity to human factor 7a assessed as release of p-nitroaniline after 10 to 120 mins by spectrophotometric analysis
T2 sequence (P08709 whole entry): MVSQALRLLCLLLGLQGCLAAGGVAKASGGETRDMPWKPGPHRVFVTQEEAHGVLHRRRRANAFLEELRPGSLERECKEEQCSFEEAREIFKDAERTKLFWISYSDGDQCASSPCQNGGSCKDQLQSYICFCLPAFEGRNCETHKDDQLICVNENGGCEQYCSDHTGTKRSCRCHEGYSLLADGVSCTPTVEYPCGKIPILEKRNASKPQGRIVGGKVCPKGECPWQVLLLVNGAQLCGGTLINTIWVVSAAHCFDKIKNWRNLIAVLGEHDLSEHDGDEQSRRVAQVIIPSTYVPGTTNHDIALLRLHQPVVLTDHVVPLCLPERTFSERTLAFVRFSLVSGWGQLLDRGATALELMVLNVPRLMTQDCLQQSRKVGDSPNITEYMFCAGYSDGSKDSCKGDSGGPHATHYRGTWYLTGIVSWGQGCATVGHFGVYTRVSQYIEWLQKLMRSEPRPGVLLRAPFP

Plasma [10] = assay: Anticoagulant activity in human plasma assessed as concentration required to double activated partial thromboplastin time; assay type: functional
Plasma kallikrein = Plasma kallikrein (Homo sapiens, UniProt P03952); assay: Binding affinity to human plasma kallikrein assessed as release of p-nitroaniline after 10 to 120 mins by spectrophotometric analysis
Chain of Plasma kallikrein (P03952 20-390 limits assumed): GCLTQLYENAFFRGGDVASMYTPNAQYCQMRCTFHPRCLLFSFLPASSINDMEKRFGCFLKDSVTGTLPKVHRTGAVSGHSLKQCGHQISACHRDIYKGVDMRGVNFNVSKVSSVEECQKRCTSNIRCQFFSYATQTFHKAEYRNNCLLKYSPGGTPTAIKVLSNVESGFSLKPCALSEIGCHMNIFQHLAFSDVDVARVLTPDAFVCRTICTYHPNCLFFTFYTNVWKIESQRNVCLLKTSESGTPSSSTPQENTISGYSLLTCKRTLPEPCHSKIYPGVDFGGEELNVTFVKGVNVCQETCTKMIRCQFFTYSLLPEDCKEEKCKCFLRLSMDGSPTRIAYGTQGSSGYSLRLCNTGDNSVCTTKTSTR
Chain of Plasma kallikrein (P03952 391-638 limits assumed): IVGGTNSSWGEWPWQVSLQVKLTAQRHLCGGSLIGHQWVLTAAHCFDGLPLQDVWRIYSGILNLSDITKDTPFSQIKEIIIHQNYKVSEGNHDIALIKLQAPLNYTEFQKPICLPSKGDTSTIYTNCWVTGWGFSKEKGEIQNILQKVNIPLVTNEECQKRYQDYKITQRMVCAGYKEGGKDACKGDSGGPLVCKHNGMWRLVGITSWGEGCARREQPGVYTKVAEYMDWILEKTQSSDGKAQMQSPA

Coagulation factor X [11] = biological target: Coagulation factor X (Homo sapiens, UniProt P00742); assay: Binding affinity to human factor 10a assessed as release of p-nitroaniline after 10 to 120 mins by spectrophotometric analysis
Chain of Coagulation factor X (Homo sapiens, UniProt P00742) (P00742 41-179 limits assumed): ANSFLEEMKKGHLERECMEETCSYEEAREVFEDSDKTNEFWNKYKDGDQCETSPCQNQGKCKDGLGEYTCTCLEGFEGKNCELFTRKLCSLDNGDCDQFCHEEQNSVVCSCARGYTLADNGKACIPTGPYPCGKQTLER
Chain of Coagulation factor X (Homo sapiens, UniProt P00742) (P00742 235-488 limits assumed): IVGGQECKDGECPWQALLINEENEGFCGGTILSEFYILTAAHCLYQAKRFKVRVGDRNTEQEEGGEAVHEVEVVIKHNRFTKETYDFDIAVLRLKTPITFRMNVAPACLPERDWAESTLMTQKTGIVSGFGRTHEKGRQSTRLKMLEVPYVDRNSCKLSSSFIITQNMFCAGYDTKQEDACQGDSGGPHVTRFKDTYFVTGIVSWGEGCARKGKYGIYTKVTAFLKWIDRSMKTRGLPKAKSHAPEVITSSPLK

[12] = biological target: Urokinase-type plasminogen activator (Homo sapiens, UniProt P00749); assay: Binding affinity to human urokinase assessed as release of p-nitroaniline after 10 to 120 mins by spectrophotometric analysis
Prothrombin = Prothrombin (Homo sapiens, UniProt P00734); assay: Binding affinity to human thrombin assessed as release of p-nitroaniline after 10 to 120 mins by spectrophotometric analysis
[13] = biological target: Vitamin K-dependent protein C (Homo sapiens, UniProt P04070); assay: Binding affinity to human activated protein C assessed as release of p-nitroaniline after 10 to 120 mins by spectrophotometric analysis
Chain of Vitamin K-dependent protein C (P04070 43-197 limits assumed): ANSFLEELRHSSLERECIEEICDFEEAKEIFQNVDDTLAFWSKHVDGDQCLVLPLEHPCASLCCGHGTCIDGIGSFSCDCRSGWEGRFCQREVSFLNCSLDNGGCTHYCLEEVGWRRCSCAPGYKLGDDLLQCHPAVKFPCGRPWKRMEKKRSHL
Chain of Vitamin K-dependent protein C (P04070 212-461 limits assumed): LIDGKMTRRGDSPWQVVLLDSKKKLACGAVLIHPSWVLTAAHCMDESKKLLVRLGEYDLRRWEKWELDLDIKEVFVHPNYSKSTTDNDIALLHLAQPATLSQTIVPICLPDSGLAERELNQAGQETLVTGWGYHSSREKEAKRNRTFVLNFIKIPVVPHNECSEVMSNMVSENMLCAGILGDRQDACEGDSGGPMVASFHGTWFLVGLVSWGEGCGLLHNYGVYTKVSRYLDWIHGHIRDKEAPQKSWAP

Coagulation factor XI = Coagulation factor XI (Homo sapiens, UniProt P03951); assay: Binding affinity to human factor 11a assessed as release of p-nitroaniline after 10 to 120 mins by spectrophotometric analysis
Chain of Coagulation factor XI (P03951 19-387 limits assumed): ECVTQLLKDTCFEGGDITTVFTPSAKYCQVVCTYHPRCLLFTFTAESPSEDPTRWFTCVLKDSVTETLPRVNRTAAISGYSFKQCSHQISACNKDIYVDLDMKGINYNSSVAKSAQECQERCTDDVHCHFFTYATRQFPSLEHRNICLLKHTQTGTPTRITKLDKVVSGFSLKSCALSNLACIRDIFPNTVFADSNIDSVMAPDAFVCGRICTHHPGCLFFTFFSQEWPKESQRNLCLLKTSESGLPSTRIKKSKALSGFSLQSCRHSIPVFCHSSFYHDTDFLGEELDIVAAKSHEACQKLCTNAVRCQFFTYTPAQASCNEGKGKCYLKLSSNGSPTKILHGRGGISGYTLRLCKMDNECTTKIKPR
Chain of Coagulation factor XI (P03951 388-625 limits assumed): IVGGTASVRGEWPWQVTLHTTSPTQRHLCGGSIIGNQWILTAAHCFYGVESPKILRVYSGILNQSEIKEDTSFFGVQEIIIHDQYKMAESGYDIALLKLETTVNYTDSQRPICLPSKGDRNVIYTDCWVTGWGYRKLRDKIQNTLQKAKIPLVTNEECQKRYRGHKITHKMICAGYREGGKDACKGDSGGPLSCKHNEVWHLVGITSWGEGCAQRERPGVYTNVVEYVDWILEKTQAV

[14] = Binding affinity to human chymotrypsin assessed as release of p-nitroaniline after 10 to 120 mins by spectrophotometric analysis
Plasma [15] = assay: Anticoagulant activity in New Zealand White rabbit plasma assessed as concentration required to double activated partial thromboplastin time; assay type: functional, Oryctolagus cuniculus

Ki [1]: 0.42 nM
Ki (Trypsin): 740 nM
Ki [3]: 200 nM
Ki [4]: 1700 nM
Ki [5]: 4.6 nM
Ki [6]: 7900 nM
Ki (Coagulation factor IX): > 20000 nM
Ki (Coagulation factor X [8]): 3200 nM
Ki (Plasminogen): 910 nM
Ki (Coagulation factor VII): 629 nM
Ki (Plasma kallikrein): 4.6 nM
Ki (Coagulation factor X [11]): 340 nM
Ki [12]: 2100 nM
Ki (Prothrombin): 12600 nM
Ki [13]: 73 nM
Ki (Coagulation factor XI): 0.2 nM
Ki [14]: 14000 nM
Structure (SMILES): CC(C)CC(=O)Nc1cc(-c2ccc(C(N)=O)cc2C(=O)O)cc(C2CC(C)(c3ccccc3)c3cc(C(=N)N)ccc3N2)c1 (single isomer, unassigned; enantiomer 2)
ID50 (Oryctolagus cuniculus [2]): 0.95 mg/kg/h
IC (Plasma [7]): >20 µM
Activity (Oryctolagus cuniculus [9]): Non-toxic
EC (Plasma [10]): 2.2 µM
EC (Plasma [15]): 2400 nM
